Reference: paper PMC11374673, “Discovery of isoquinoline sulfonamides as allosteric gyrase inhibitors with activity against fluoroquinolone-resistant bacteria” (Nature Chemistry, 2024)
≈ marks a conversion by molar mass, not a printed value. Where “and” joins values, the source holds several entries; their conditions need not be identical. Equal entries are not always repeated.

Columns and labels:
[1] = system: A. baumannii ATCC BAA747; test: MIC by broth microdilution; format: cell-based; conditions: Acinetobacter baumannii, ATCCBAA747; read-out: MIC A. baumannii ATCC BAA747
Experimental: MIC was determined by broth microdilution. Single-colony cultures were grown to exponential phase (OD600 of 0.5) aerobically at 37 °C. In case of strains from the Keio collection, 50 µg ml^−1 kanamycin was supplemented to the media to ascertain a homogeneous population. The bacterial suspensions were diluted 100-fold in CAMHB and 50 µl was added to a twofold serial dilution series of test compounds (50 µl per well) in polypropylene 96-well microtitre plates to reach a volume of 100 µl. The plates were sealed with breathable membranes and incubated overnight at 37 °C with constant shaking (600 r.p.m.). The MIC was determined as the lowest concentration at which no visible bacterial growth was observed as compared with the inoculum controls from the median of a minimum of triplicates.

[2] = system: HEK293T; test: Cytotoxicity assay (MTT); format: cell-based, human; conditions: for MTT data (raw readout): HEK293T
Method in brief: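 HEK293T cells, maintained at 37 °C and 7% CO2 in Dulbecco’s modified Eagle medium with GlutaMax, antibiotics and serum, were plated in clear 96-well plates in 100 µl medium containing 1% fetal bovine serum and left 24 h to attach. After 24 h compound exposure, MTT (0.40 mg ml^−1) was added for 2 h. Formazan was dissolved in 100 µl DMSO and absorbance measured at 570 nm. Background-corrected IC50 values came from variable-slope non-linear fits.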

[3] = system: HepG2; test: Cytotoxicity assay (MTT); format: cell-based, human

O=S(=O)(NC[C@@H]1CC[C@H](c2ccc(-c3ccc(F)cc3)cc2)N1)c1cccc2cnccc12 [Compound 101]
MIC [1]: 25 µM (≈ 11.5 µg/mL) | cytotoxicity ([2]; HEK293T and HepG2): substantial cytotoxicity | MTT data (raw readout) ([2]; 0.023 uM, experiment n = 1, technical triplicates): 1.467 and 1.369 and 1.336 | MTT data (raw readout) ([2]; 0.023 uM, experiment n = 2, technical triplicates): 0.913 and 0.978 and 0.995 | MTT data (raw readout) ([2]; 0.068 uM, experiment n = 1, technical triplicates): 1.354 and 1.258 and 1.005 | MTT data (raw readout) ([2]; 0.068 uM, experiment n = 2, technical triplicates): 1.026 and 1.021 and 0.846 | MTT data (raw readout) ([2]; 0.21 uM, experiment n = 1, technical triplicates): 1.223 and 1.254 and 1.173 | MTT data (raw readout) ([2]; 0.21 uM, experiment n = 2, technical triplicates): 1.069 and 0.984 and 0.926 | MTT data (raw readout) ([2]; 0.62 uM, experiment n = 1, technical triplicates): 1.112 and 0.937 and 0.942 | MTT data (raw readout) ([2]; 0.62 uM, experiment n = 2, technical triplicates): 0.770 and 0.738 and 0.688 | MTT data (raw readout) ([2]; 1.85 uM, experiment n = 1, technical triplicates): 0.725 and 0.641 and 0.684 | MTT data (raw readout) ([2]; 1.85 uM, experiment n = 2, technical triplicates): 0.521 and 0.485 and 0.507 | MTT data (raw readout) ([2]; 5.6 uM, experiment n = 1, technical triplicates): 0.749 and 0.695 and 0.667 | MTT data (raw readout) ([2]; 5.6 uM, experiment n = 2, technical triplicates): 0.483 and 0.462 and 0.474 | MTT data (raw readout) ([2]; 16.7 uM, experiment n = 1, technical triplicates): 0.450 and 0.504 and 0.484 | MTT data (raw readout) ([2]; 16.7 uM, experiment n = 2, technical triplicates): 0.372 and 0.345 | MTT data (raw readout) ([2]; 50 uM, experiment n = 2, technical triplicates): 0.011 and 0.012 | IC50 ([2]; Homo sapiens, HEK-293T, 24 h, MTT): 3.2 µM | MTT data (raw readout) ([3]; HepG2, 0.023 uM, experiment n = 1, technical triplicates): 0.470 and 0.394 and 0.364 | MTT data (raw readout) ([3]; HepG2, 0.023 uM, experiment n = 2, technical triplicates): 0.305 and 0.260 and 0.288 | MTT data (raw readout) ([3]; HepG2, 0.068 uM, experiment n = 1, technical triplicates): 0.452 and 0.420 and 0.368 | MTT data (raw readout) ([3]; HepG2, 0.068 uM, experiment n = 2, technical triplicates): 0.322 and 0.313 and 0.323 | MTT data (raw readout) ([3]; HepG2, 0.21 uM, experiment n = 1, technical triplicates): 0.390 and 0.419 and 0.407 | MTT data (raw readout) ([3]; HepG2, 0.21 uM, experiment n = 2, technical triplicates): 0.324 and 0.279 and 0.267 | MTT data (raw readout) ([3]; HepG2, 0.62 uM, experiment n = 1, technical triplicates): 0.368 and 0.340 and 0.370 | MTT data (raw readout) ([3]; HepG2, 0.62 uM, experiment n = 2, technical triplicates): 0.315 and 0.269 and 0.267 | MTT data (raw readout) ([3]; HepG2, 1.85 uM, experiment n = 1, technical triplicates): 0.439 and 0.392 and 0.378 | MTT data (raw readout) ([3]; HepG2, 1.85 uM, experiment n = 2, technical triplicates): 0.289 and 0.297 and 0.299 | MTT data (raw readout) ([3]; HepG2, 5.6 uM, experiment n = 1, technical triplicates): 0.403 and 0.384 and 0.371 | MTT data (raw readout) ([3]; HepG2, 5.6 uM, experiment n = 2, technical triplicates): 0.315 and 0.277 and 0.266 | MTT data (raw readout) ([3]; HepG2, 16.7 uM, experiment n = 1, technical triplicates): 0.208 and 0.211 and 0.189 | MTT data (raw readout) ([3]; HepG2, 16.7 uM, experiment n = 2, technical triplicates): 0.140 and 0.112 and 0.095 | IC50 ([3]; Homo sapiens, HepG2, 24 h, MTT, 24 h): 13 µM
